Laboratory results: ChEMBL document CHEMBL1641439, “The effect of 5-substitution on the electrochemical behavior and antitubercular activity of PA-824” (2011)
Converted amounts (≈) assume the structure as drawn.

Tests used:
[1] = tested on: Mycobacterium tuberculosis; experiment: Antituberculosis activity against Mycobacterium tuberculosis H37Rv Ddn mutant after 2 weeks; type: functional
[2] = tested on: Mycobacterium tuberculosis; experiment: Antituberculosis activity against Mycobacterium tuberculosis H37Rv F420 mutant after 2 weeks; type: functional

N#Cc1c([N+](=O)[O-])nc2n1C[C@H](OCc1ccc(OC(F)(F)F)cc1)CO2
MIC [1]: >100 µM
MIC [2]: >100 µM

O=[N+]([O-])c1nc2n(c1Br)C[C@H](OCc1ccc(OC(F)(F)F)cc1)CO2
MIC [1]: 25 µM (≈ 11 µg/mL)
MIC [2]: 25 µM (≈ 11 µg/mL)

O=[N+]([O-])c1nc2n(c1Cl)C[C@H](OCc1ccc(OC(F)(F)F)cc1)CO2
MIC [1]: 50 µM (≈ 19.7 µg/mL)
MIC [2]: 25 µM (≈ 9.84 µg/mL)

O=[N+]([O-])c1cn2c(n1)OC[C@@H](OCc1ccc(OC(F)(F)F)cc1)C2 [PRETOMANID]
MIC [1]: >100 µM
MIC [2]: >100 µM

Nc1c([N+](=O)[O-])nc2n1C[C@H](OCc1ccc(OC(F)(F)F)cc1)CO2
MIC [1]: >100 µM
MIC [2]: >100 µM
